Experimental data published in patent publication US9624233B2, “Compounds for treating pruritic conditions” (priority 2015, dated 2017).

Columns and labels:
Conditions in all cases: 2.5E−05M
OX1 (h) = biological target: T1, OX1 (h) (Homo sapiens, UniProt O43613); test: Abuse liability binding screen, OX1 (h) (agonist radioligand)
T1 sequence (O43613 1-425): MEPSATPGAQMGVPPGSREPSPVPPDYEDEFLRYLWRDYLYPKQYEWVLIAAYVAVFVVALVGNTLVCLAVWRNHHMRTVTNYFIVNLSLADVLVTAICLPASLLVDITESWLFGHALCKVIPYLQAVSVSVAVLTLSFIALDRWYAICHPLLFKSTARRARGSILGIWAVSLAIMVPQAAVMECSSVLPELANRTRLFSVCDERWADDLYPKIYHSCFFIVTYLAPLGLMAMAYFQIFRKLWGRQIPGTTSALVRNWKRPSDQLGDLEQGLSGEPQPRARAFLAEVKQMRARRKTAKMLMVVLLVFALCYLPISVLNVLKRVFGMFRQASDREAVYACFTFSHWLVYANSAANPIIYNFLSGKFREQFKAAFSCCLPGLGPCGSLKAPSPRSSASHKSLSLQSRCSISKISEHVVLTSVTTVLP
Method: (§1) Compound binding was calculated as a % inhibition of the binding of a radioactively labeled ligand specific for each target.

OX2 (h) = biological target: T2, OX2 (h) (Homo sapiens, UniProt O43614); test: Abuse liability binding screen, OX2 (h) (agonist radioligand)
T2 sequence (O43614 1-444): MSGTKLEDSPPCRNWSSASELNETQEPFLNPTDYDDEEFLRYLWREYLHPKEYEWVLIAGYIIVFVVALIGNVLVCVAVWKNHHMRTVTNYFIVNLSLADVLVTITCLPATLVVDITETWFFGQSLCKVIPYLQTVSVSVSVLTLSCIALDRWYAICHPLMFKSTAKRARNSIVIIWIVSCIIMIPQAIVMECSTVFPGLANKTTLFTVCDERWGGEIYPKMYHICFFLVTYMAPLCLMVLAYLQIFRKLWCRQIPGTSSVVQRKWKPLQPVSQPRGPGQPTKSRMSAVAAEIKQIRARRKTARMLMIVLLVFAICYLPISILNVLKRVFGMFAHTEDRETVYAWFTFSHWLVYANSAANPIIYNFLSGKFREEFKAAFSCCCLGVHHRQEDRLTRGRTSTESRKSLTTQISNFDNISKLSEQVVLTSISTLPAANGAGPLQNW
Method: (§2) […]. The abuse liability screen included 44 targets (receptors, transporters, on gated-channel systems) related to the dopamine, norepinephrine, serotonin, gamma-aminobutyric acid (GABA), acetylcholine, N-methyl-D-aspartate (NMDA) cannabinoid and opioid neurotransmitter systems as recommended in FDA Draft guidance on Assessment of Abuse Potential of Drugs, January 2010.
as §1
(§3) Results showing an inhibition or stimulation higher than 50% are considered to represent significant effects of the test compounds.

AR (h) = biological target: T3, AR (h) (Homo sapiens, UniProt P10275); test: Abuse liability binding screen, AR (h) (agonist radioligand)
T3 sequence (P10275 1-920): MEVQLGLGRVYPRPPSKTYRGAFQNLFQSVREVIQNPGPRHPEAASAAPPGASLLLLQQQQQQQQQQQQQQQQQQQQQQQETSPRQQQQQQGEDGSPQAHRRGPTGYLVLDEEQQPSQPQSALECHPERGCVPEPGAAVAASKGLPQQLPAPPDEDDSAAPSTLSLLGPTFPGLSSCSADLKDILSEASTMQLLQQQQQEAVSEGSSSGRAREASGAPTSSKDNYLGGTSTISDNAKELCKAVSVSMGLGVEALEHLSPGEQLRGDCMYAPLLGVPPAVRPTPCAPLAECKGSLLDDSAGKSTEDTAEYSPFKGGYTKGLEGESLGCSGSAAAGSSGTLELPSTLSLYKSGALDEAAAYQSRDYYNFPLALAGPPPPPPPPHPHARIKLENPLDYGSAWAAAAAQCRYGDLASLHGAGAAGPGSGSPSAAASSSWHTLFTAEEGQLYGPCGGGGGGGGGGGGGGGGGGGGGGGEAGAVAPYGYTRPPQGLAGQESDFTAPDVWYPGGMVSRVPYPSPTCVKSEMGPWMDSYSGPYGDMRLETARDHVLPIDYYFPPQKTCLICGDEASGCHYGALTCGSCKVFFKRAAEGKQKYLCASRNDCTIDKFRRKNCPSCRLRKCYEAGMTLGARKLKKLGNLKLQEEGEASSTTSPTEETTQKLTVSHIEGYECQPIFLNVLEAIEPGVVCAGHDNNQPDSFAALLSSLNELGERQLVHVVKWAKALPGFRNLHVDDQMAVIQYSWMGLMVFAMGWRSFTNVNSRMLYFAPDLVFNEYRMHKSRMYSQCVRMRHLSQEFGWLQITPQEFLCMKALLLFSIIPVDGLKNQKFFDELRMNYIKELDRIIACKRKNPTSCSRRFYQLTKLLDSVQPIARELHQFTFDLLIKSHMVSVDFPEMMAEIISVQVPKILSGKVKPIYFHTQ
Method: as §2, §1, §3

5-HT3 (h) = biological target: T4, 5-HT3 (h) (Homo sapiens, UniProt P46098); test: Abuse liability binding screen, 5-HT3 (h) (antagonist radioligand)
T4 sequence (P46098 24-478): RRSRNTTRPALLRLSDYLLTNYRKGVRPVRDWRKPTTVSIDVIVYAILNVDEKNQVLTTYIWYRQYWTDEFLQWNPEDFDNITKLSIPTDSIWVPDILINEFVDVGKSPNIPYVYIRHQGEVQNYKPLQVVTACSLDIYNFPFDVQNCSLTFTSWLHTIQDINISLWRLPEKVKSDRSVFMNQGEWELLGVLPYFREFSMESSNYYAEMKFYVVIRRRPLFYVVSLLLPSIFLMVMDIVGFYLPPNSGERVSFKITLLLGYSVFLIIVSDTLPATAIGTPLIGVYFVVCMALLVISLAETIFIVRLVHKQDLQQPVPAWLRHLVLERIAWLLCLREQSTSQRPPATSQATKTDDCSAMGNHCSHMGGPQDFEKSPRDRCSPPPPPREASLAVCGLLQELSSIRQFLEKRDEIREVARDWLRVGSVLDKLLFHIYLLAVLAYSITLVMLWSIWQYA
Method: as §2, §1, §3

O=C(O)[C@H]1O[C@@H](Oc2ccc3c4c2O[C@H]2[C@@H](O)CC[C@@]5(O)[C@@H](C3)N(CC3CCC3)CC[C@]425)[C@H](O)[C@@H](O)[C@@H]1O [Compound M5, nalbuphine-3-beta-D-glucuronid]
% Inhibition of Control Specific Binding 1st (OX1 (h)): 5.5% | % Inhibition of Control Specific Binding 2nd (OX1 (h)): −1.5% | % Inhibition of Control Specific Binding Mean (OX1 (h)): 2.0% | % Inhibition of Control Specific Binding 1st (OX2 (h)): −3.5% | % Inhibition of Control Specific Binding 2nd (OX2 (h)): −2.4% | % Inhibition of Control Specific Binding Mean (OX2 (h)): −2.9% | % Inhibition of Control Specific Binding 1st (AR (h)): 4.9% | % Inhibition of Control Specific Binding 2nd (AR (h)): −0.8% | % Inhibition of Control Specific Binding Mean (AR (h)): 2.1% | % Inhibition of Control Specific Binding 1st (5-HT3 (h)): 3.2% | % Inhibition of Control Specific Binding 2nd (5-HT3 (h)): 10.9% | % Inhibition of Control Specific Binding Mean (5-HT3 (h)): 7.0%
